Among the targets are Vasopressin V2 receptor (Homo sapiens, UniProt P30518); Adenosine receptor A2a (Homo sapiens, UniProt P29274); D(3) dopamine receptor (Homo sapiens, UniProt P35462); Motilin receptor (Homo sapiens, UniProt O43193); Melanocortin receptor 3 (Homo sapiens, UniProt P41968).
For assay [1], the target named is Voltage-gated inwardly rectifying potassium channel KCNH2 (Homo sapiens, UniProt Q12809). It counts as functional.
Assay [2] concerns the target T1, Neuropeptide Y receptor type 1 (Homo sapiens, UniProt P25929).
T1 sequence (P25929 whole entry): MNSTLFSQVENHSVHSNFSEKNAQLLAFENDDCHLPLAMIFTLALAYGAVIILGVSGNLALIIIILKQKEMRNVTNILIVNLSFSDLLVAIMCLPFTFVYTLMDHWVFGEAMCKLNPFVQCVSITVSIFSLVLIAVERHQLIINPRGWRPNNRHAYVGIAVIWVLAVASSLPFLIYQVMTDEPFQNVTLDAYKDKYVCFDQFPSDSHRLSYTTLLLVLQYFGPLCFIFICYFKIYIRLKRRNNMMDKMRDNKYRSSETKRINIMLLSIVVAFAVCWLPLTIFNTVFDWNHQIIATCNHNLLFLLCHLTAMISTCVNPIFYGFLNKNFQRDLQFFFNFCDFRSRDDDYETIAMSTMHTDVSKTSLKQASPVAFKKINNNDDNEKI
Particulars: read-out: AC50.

Assay [3] has as its target T2, Alpha-2A adrenergic receptor (Homo sapiens, UniProt P08913).
T2 sequence (P08913 whole entry): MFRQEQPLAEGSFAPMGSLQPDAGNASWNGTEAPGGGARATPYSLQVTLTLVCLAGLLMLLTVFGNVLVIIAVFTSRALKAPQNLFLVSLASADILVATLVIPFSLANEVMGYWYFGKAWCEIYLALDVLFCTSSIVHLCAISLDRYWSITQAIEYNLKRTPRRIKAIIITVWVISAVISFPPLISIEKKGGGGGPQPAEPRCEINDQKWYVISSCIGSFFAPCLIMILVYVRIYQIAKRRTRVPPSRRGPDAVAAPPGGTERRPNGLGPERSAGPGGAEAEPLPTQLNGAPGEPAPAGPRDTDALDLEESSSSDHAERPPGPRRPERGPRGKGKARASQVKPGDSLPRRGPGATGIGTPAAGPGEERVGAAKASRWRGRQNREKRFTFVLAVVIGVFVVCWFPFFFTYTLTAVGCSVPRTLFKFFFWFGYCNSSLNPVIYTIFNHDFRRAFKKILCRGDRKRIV
The assay is classed as functional, cell-based.

The next assay addresses T3, B2 bradykinin receptor (Homo sapiens, UniProt P30411).
T3 sequence (P30411 whole entry): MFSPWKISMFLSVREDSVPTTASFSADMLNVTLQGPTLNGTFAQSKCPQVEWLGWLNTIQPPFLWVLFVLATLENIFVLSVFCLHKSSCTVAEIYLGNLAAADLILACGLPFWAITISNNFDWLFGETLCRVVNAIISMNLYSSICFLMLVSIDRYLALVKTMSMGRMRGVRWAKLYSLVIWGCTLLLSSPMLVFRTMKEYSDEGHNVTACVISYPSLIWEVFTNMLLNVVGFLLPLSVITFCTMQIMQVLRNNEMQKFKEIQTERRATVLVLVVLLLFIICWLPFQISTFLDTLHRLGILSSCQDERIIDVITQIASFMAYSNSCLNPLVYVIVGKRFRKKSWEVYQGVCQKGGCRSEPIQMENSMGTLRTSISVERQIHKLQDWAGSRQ

For assay [4], the target named is Sodium-dependent noradrenaline transporter (Homo sapiens, UniProt P23975).
Sodium-dependent noradrenaline transporter, sequence (P23975 whole entry): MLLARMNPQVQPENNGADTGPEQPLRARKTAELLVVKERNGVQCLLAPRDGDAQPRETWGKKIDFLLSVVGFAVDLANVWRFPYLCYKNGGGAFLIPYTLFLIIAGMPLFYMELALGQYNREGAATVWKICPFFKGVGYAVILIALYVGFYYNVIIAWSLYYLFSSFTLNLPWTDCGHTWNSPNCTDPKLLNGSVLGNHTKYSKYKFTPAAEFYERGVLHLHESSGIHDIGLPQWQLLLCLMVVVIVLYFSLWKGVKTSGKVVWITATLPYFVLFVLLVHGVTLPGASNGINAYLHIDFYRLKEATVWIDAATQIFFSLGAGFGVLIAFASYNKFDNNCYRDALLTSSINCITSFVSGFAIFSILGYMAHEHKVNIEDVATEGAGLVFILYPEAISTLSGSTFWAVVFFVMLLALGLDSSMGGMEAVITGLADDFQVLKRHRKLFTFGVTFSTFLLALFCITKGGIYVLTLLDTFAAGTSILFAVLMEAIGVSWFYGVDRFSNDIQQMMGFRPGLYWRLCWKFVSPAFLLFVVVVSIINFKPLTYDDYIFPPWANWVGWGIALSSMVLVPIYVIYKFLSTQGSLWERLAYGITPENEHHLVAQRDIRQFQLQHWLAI
Assay [5] has as its target Neuronal acetylcholine receptor subunit alpha-4 (Homo sapiens, UniProt P43681).
The target in assay [6] is T4, Amine oxidase [flavin-containing] A (Homo sapiens, UniProt P21397).
T4 sequence (P21397 whole entry): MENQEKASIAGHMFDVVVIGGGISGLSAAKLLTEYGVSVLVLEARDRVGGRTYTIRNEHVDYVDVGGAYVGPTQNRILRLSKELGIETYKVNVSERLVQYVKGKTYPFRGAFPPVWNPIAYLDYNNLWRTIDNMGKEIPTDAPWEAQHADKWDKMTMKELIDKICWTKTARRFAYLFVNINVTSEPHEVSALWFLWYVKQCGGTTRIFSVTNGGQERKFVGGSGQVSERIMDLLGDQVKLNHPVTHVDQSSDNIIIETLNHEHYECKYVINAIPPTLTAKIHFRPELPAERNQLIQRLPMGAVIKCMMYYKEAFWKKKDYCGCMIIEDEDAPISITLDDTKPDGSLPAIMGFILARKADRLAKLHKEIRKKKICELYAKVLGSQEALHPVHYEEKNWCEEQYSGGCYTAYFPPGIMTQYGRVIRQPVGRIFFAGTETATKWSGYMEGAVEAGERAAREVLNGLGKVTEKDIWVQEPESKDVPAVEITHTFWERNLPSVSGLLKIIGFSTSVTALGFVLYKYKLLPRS
It counts as functional.

Assay [7] addresses T5, Type-1 angiotensin II receptor (Homo sapiens, UniProt P30556).
T5 sequence (P30556 whole entry): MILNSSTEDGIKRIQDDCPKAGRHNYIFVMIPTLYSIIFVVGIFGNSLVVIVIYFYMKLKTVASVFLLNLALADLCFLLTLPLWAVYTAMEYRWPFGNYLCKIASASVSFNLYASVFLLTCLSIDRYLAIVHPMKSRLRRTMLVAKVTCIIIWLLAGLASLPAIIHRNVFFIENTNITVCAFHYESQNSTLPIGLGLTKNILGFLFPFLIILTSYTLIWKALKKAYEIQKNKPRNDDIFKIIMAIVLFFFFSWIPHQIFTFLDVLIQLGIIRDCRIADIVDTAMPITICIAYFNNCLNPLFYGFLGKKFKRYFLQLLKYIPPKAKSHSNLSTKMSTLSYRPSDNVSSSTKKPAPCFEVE

Assay [8] addresses Growth hormone secretagogue receptor type 1 (Homo sapiens, UniProt Q92847).
In assay [9] the target is Delta-type opioid receptor (Homo sapiens, UniProt P41143).

Where only a bound is given, the exact number is not on record here.
Note: assay procedure not described here.

Growth hormone secretagogue receptor type 1, sequence (Q92847 whole entry): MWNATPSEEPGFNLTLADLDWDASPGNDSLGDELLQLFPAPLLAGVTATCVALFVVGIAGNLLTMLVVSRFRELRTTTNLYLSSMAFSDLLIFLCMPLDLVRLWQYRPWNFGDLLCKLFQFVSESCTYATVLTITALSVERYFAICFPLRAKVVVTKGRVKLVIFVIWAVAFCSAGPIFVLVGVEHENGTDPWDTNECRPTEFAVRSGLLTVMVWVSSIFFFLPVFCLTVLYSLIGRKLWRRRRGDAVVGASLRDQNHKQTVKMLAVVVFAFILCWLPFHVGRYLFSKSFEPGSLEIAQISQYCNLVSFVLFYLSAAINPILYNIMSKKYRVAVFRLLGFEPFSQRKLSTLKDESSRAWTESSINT
Vasopressin V2 receptor, sequence (P30518 whole entry): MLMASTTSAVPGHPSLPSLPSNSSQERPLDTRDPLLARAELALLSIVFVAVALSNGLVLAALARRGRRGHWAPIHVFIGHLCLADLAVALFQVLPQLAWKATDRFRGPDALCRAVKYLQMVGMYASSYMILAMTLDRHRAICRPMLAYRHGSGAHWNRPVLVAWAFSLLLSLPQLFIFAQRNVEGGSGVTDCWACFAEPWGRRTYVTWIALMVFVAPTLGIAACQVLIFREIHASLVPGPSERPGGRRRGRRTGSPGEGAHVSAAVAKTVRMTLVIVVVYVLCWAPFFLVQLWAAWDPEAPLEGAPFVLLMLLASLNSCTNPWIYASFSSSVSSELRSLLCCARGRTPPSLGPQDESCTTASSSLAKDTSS
Voltage-gated inwardly rectifying potassium channel KCNH2, sequence (Q12809 whole entry): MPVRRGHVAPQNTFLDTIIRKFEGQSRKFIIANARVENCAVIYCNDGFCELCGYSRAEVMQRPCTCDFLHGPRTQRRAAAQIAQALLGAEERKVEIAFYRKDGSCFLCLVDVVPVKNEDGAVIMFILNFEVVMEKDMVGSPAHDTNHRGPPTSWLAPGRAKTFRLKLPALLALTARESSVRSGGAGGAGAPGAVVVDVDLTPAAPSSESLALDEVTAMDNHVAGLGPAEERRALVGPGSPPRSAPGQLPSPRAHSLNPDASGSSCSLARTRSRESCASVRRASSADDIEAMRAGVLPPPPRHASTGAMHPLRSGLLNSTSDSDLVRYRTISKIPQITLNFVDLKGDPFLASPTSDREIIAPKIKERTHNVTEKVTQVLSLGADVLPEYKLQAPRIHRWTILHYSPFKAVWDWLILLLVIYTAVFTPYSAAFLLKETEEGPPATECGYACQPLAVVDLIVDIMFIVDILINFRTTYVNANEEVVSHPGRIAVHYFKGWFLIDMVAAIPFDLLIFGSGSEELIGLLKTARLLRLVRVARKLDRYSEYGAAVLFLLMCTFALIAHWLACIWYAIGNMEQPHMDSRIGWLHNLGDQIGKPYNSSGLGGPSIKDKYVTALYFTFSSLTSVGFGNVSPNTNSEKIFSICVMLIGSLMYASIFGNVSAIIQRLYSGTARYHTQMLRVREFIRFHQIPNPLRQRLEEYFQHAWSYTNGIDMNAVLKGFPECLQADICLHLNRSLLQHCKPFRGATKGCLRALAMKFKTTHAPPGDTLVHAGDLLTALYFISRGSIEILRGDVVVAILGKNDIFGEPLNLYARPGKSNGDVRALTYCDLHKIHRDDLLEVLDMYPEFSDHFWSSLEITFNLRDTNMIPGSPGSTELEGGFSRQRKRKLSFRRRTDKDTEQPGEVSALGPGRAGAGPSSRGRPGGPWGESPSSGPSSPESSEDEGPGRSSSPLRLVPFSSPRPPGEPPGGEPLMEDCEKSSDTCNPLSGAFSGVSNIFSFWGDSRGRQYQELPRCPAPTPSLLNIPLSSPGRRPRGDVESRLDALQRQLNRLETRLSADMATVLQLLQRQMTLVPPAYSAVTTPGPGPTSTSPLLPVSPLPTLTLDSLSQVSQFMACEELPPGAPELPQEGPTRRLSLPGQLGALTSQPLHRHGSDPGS
Melanocortin receptor 3, sequence (P41968 whole entry): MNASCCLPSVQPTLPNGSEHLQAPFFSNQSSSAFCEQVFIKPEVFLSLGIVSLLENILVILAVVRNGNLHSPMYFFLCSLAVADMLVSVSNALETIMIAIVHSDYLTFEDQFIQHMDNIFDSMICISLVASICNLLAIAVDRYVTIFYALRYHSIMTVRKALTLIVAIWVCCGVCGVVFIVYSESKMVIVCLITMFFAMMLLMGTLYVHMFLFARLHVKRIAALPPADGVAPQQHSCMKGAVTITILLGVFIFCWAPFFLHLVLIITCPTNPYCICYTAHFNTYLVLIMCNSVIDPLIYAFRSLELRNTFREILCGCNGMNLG
Motilin receptor, sequence (O43193 whole entry): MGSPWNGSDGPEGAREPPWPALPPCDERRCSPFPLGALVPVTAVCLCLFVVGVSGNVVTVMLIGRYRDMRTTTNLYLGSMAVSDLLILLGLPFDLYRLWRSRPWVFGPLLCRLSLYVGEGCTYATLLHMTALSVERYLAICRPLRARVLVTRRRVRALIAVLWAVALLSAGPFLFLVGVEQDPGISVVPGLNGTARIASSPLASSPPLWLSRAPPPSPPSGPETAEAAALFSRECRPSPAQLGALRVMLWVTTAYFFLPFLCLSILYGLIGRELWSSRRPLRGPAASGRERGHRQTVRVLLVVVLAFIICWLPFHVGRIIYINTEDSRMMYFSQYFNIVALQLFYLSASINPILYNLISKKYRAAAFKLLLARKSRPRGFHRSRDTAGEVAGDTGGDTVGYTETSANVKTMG
D(3) dopamine receptor, sequence (P35462 whole entry): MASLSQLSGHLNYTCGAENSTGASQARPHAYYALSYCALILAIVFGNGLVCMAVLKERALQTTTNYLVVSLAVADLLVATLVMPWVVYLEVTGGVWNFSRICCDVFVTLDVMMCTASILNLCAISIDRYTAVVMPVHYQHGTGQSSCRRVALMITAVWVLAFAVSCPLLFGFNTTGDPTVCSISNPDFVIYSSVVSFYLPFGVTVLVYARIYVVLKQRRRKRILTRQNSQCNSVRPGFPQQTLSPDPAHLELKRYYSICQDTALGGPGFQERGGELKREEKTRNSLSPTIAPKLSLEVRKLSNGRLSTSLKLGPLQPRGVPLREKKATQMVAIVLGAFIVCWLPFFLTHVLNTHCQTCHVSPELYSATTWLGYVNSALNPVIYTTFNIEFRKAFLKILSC
Adenosine receptor A2a, sequence (P29274 whole entry): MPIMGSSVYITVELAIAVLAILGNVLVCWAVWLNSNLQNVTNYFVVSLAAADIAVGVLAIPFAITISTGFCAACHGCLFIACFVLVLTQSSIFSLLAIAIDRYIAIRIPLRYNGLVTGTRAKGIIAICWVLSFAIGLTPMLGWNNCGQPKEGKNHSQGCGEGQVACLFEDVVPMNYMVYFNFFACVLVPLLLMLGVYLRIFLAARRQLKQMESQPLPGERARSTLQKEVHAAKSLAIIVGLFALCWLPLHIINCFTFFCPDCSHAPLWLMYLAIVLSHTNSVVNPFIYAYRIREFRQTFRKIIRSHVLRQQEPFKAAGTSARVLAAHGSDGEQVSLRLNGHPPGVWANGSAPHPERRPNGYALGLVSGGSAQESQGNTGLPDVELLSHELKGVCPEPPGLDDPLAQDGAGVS
Neuronal acetylcholine receptor subunit alpha-4, sequence (P43681 whole entry): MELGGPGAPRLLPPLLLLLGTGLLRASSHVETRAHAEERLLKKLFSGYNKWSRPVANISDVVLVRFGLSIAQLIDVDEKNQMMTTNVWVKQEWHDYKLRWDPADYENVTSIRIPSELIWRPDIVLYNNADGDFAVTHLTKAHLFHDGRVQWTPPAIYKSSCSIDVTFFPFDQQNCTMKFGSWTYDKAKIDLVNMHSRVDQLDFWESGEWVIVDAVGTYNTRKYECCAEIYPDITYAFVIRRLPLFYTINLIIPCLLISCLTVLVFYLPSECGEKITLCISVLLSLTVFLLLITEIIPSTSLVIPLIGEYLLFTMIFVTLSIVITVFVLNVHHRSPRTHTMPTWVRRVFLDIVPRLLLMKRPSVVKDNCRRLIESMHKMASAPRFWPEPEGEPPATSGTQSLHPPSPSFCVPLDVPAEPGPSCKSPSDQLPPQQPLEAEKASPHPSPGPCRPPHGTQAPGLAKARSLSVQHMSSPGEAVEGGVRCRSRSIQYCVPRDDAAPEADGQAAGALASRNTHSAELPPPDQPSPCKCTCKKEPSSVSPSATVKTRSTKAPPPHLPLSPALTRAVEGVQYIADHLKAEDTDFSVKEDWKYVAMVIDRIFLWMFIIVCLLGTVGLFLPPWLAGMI

Turning to `CC(C)(C)C(=O)OCC(=O)[C@H]1CC[C@H]2[C@@H]3CCC4=CC(=O)CC[C@]4(C)[C@H]3CC[C@]12C` [DESOXYCORTICOSTERONE PIVALATE], the AC50 (usually the concentration at which the activity in the assay is half-maximal) in assay [1] was above 30 µM; at Vasopressin V2 receptor it was above 10 µM; on Adenosine receptor A2a, above 10 µM; at D(3) dopamine receptor, above 30 µM; in [2], above 10 µM; on Motilin receptor, above 10 µM. The AC50 (in assay [3]; at B2 bradykinin receptor; in assay [4]; in assay [5]; in [6]; in [7]) was above 10 µM each time. Also, the half-maximal activity concentration (AC50) was above 10 µM on Melanocortin receptor 3, above 10 µM in assay [8] and above 30 µM in assay [9].

Regarding `CC(CCc1ccc(O)cc1)NCCc1ccc(O)c(O)c1` (stereo not given) [DOBUTAMINE], the AC50 is 20.3 µM in assay [1]; above 30 µM on Vasopressin V2 receptor; above 30 µM at Adenosine receptor A2a; 0.728 µM on D(3) dopamine receptor; above 30 µM in [2]; above 30 µM on Motilin receptor. Further, the AC50 in assay [3] was above 30 µM; on B2 bradykinin receptor it was above 30 µM; in [4], 1.73 µM; in assay [5] it was above 30 µM; in [6], above 30 µM; in assay [7], above 30 µM. The AC50 (on Melanocortin receptor 3; in [8]; in assay [9]) was above 30 µM throughout.

Turning to `CCOC(=O)c1cncn1[C@H](C)c1ccccc1` [ETOMIDATE], the AC50 is above 30 µM in assay [1]; above 10 µM on Vasopressin V2 receptor; above 10 µM on Adenosine receptor A2a; above 30 µM at D(3) dopamine receptor; above 10 µM in [2]; above 10 µM on Motilin receptor. Also, the AC50 (in assay [3]; at B2 bradykinin receptor; in assay [4]; in assay [5]; in assay [6]; in assay [7]) was above 10 µM in each case. In addition, the AC50 is above 10 µM on Melanocortin receptor 3, above 10 µM in assay [8] and above 30 µM in assay [9].

As to `CC(C(=O)O)c1ccc(-c2ccccc2)c(F)c1` (stereo not given) [FLURBIPROFEN], the AC50 in assay [1] is above 30 µM; on Vasopressin V2 receptor, above 10 µM; on Adenosine receptor A2a, above 10 µM; on D(3) dopamine receptor, 0.086 µM; in assay [2], above 10 µM; at Motilin receptor it was above 10 µM. Moreover, the AC50 (in assay [3]; on B2 bradykinin receptor; in assay [4]; in assay [5]; in assay [6]; in assay [7]) was above 10 µM in each case. Besides, the AC50 on Melanocortin receptor 3 was above 10 µM; in [8], above 10 µM; in [9], above 30 µM.

With `CCC(=O)O[C@]1(C(=O)SCF)[C@H](C)C[C@H]2[C@@H]3C[C@H](F)C4=CC(=O)C=C[C@]4(C)[C@@]3(F)[C@@H](O)C[C@@]21C` [FLUTICASONE PROPIONATE], the AC50 (in assay [1]; at Vasopressin V2 receptor; on Adenosine receptor A2a; at D(3) dopamine receptor; in assay [2]; on Motilin receptor) was above 30 µM throughout. Also, the AC50 (in assay [3]; at B2 bradykinin receptor; in assay [4]; in assay [5]; in [6]; in assay [7]) was above 30 µM in each case. In addition, the AC50 (on Melanocortin receptor 3; in assay [8]; in [9]) was above 30 µM each time.

Regarding `C[C@]12CCC(=O)C(O)=C1CC[C@@H]1[C@@H]2CC[C@]2(C)C(=O)CC[C@@H]12` [FORMESTANE], the AC50 (in assay [1]; at Vasopressin V2 receptor; at Adenosine receptor A2a; on D(3) dopamine receptor; in [2]; on Motilin receptor) was above 30 µM each time. The AC50 (in assay [3]; at B2 bradykinin receptor; in assay [4]; in [5]; in assay [6]; in assay [7]) was above 30 µM in each case. Moreover, the AC50 (at Melanocortin receptor 3; in assay [8]; in assay [9]) was above 30 µM throughout.

As to `C[C@]12CC[C@@H]3c4ccc(O)cc4C[C@@H](CCCCCCCCC[S+]([O-])CCCC(F)(F)C(F)(F)F)[C@H]3[C@@H]1CC[C@@H]2O` (stereo not given in full) [FULVESTRANT], the AC50 (in assay [1]; on Vasopressin V2 receptor; at Adenosine receptor A2a; on D(3) dopamine receptor; in assay [2]; at Motilin receptor) was above 30 µM each time. Also, the AC50 (in assay [3]; on B2 bradykinin receptor; in [4]; in [5]; in assay [6]; in assay [7]) was above 30 µM in each case. Moreover, the AC50 (on Melanocortin receptor 3; in assay [8]; in assay [9]) was above 30 µM throughout.

For `CCC1(c2ccccc2)CCC(=O)NC1=O` (stereo not given) [GLUTETHIMIDE], the AC50 in assay [1] was above 30 µM; on Vasopressin V2 receptor it was above 10 µM; at Adenosine receptor A2a, above 10 µM; at D(3) dopamine receptor, above 30 µM; in [2], above 10 µM; on Motilin receptor, above 10 µM. Also, the AC50 (in [3]; on B2 bradykinin receptor; in assay [4]; in assay [5]; in assay [6]; in assay [7]) was above 10 µM in each case. In addition, the results for the half-maximal activity concentration (AC50) (on Melanocortin receptor 3; in assay [8]; in assay [9]) were above 10 µM, above 10 µM and above 30 µM, respectively.

The record behind these values is ChEMBL document CHEMBL5291721, “A preclinical secondary pharmacology resource illuminates target-adverse drug reaction associations of marketed drugs” (Nat Commun, 2023).
